Measurements published in patent EP1826280A2 (priority 1992, dated 1994).

Test system: vascular smooth muscle cells
Test: 24 hour 3H-leucine protein inhibition and 3H-thymidine DNA synthesis inhibition assays
Assay type: cell-based
Conditions: 24 hour exposure; for inhibition of DNA synthesis compared with protein synthesis: in the presence of 5% FBS
Protocol: The ability of various therapeutic agents to inhibit DNA synthesis and protein synthesis in vascular smooth muscle cells was tested. ^3H-leucine and ^3H-thymidine uptake and cytotoxicity assays were conducted in accordance with the following protocols.
^3H-leucine uptake: Vascular smooth muscle cells at 40,000 cells/ml were seeded in sterile 24 well plates at 1ml/well. The plates were incubated overnight at 37°C, 5% CO2, 95% air in a humidified atmosphere (saturation). Log dilutions of the therapeutic agent of interest were incubated with the vascular smooth muscle cells for 5 minutes or 24 hours. Samples of the therapeutic agents were diluted in DMEM:F-12 media (Whittaker Bioproducts, Walkersville, Maryland) with 5% fetal bovine serum (GBS, Gibco) and 5% Serum Plus® (JRH Biologicals). Following therapeutic agent incubation, the solution was aspirated, and 1ml/well of 0.5 microcurie/ml ^3H-leucine in leucine free DMEM (Dulbecco's Modified Eagle's Medium) with 5% Serum Plus® was added. The plates were re-incubated overnight at 37°C, 5% CO2 in a humidified atmosphere. The cells were visually graded using an inverted microscope using a scoring scale to determine viability and cell number. The 1 to 3 grade is based upon percent of cell viability and number compared to control wells, with 3=100%, 2=70%-100% and 1=0%-70%. A record of this scoring assisted in determining the immediate cytotoxic effect of the therapeutic agents. The media was then aspirated, and the cells were washed twice with cold 5% TCA. 400 microliters of 0.2M KaOH was added per well, and the plates were incubated for two hours at room temperature on a rotating platform. 200 microliters per well of the cell solution was transferred into plastic scintillation vials (Bio-Rad Laboratories), and 4 milliliters of Bio-Safe® II liquid scintillation fluid was added prior to vortexing. Vials were counted on a Beckman LS2600 Liquid scintillation Counter interfaced with Beckman "Data Capture" software for conversion to a Lotus 1-2-3® file and analysis using Lotus 1-2-3®.
^3H-thymidine uptake: Vascular smooth muscle cells were incubated in complete media with 5% FBS (Gibco) overnight at 37°C in a humidified, 5% CO2 environment in sterile 24 well plates. The media was aspirated from the wells and serum free media supplemented with growth factors (DMEM: F-12 basal media supplemented with growth factor cocktail catalog number I1884 which contains insulin (5 micrograms/ml), transferrin (5 micrograms/ml) and sodium selenite (5 nanograms/ml) available from Sigma Chemical, St. Louis, Missouri) was added. Cells were incubated in this media for 24 hours. For a 5 minute therapeutic agent exposure, log dilutions of the therapeutic agent were incubated with the cells in complete media. After 5 minutes and media aspiration, 1 ml/well of 1.0 microcurie/ml ^3H-thymidine dispersed in complete media was added. The 24 hour exposure involved incubation of the cells with 1 ml/well of 1.0 microcurie/ml of ^3H-thymidine dispersed in complete media and log dilutions of the therapeutic agent being tested. In both exposure trials, the cells were then incubated overnight at 37°C in a humidified, 5% CO2 environment. The cells were visually scored for viability and cell number. […] Vials were counted on a Beckman LS2800 Liquid Scintillation counter interfaced with Beckman "Data Capture" software for conversion to a Lotus 1-2-3® file and analysis using Lotus 1-2-3®.

Row | SMILES | therapeutic range (area under the curve of 3H-leucine assay greater than that of 3H-thymidine assay) | inhibition of DNA synthesis compared with protein synthesis
1 | O=[N+]([O-])OCC(CO[N+](=O)[O-])O[N+](=O)[O-] [nitroglycerin] | showed an available therapeutic range | to a greater extent than they inhibited protein synthesis
2 | CN[C@@H]1C[C@H]2O[C@@](C)([C@@H]1OC)n1c3ccccc3c3c4c(c5c6ccccc6n2c5c31)C(=O)NC4 [staurosporin] | showed an available therapeutic range | –
3 | Cc1ccc(C(=O)Nc2ccc(S(=O)(=O)O)c3cc(S(=O)(=O)O)cc(S(=O)(=O)O)c23)cc1NC(=O)c1cccc(NC(=O)Nc2cccc(C(=O)Nc3cc(C(=O)Nc4ccc(S(=O)(=O)O)c5cc(S(=O)(=O)O)cc(S(=O)(=O)O)c45)ccc3C)c2)c1 [suramin] | showed an available therapeutic range | to a greater extent than they inhibited protein synthesis
